Test system: 425362-245-T-J1 tumor spheroids, viability % test/control
Test: Anticancer human tumor 425362-245-T-J1 patient-derived melanoma cell line growth inhibition
Conditions: spheroids with HUVEC and MSC; for IC50: curve of first compound; for viability, T/C: stronger effect = lower value
Source text: Multicellular complex tumor spheroid response to DNA repair inhibitors in combination with DNA-damaging drugs
This study explores the anticancer activities of DNA-damaging drugs and inhibitors of DNA damage repair, both as single agents and in combinations. Complex tumor spheroids comprised of malignant cells, endothelial cells and mesenchymal stem cells served as an in vitro model for human solid tumors. This model system incorporates physiologically relevant features and patient-derived or established malignant cell lines with clinically relevant genetic alterations from many tumor types. Twenty-six patient-derived or established malignant cell lines were evaluated representing sarcoma, melanoma, small cell lung cancer (SCLC), non-small cell lung cancer (NSCLC), as well as bladder, ovarian and pancreatic cancers. The concentration ranges selected for each drug and investigational agent were based upon clinically achievable concentrations if the clinical Cmax of the agent was known.
Compounds. The drugs and compounds olaparib (NSC753686), talazoparib (NSC767125), berzosertib (NSC777718), elimusertib (NSC800525), nedisertib (NSC802822), VX-984 (NSC792969), AZD-1390 (NSC803789), temozolomide (NSC362856), topotecan (NSC609699), trabectedin (NSC813783), staurosporine (NSC755774), and gemcitabine (NSC613327) were obtained from the National Cancer Institute (NCI) Developmental Therapeutics Program Chemical Repository. The FDA-approved anticancer drug set is available from the Developmental Therapeutics Program at https://dtp.cancer.gov/organization/dscb/obtaining/available_plates.htm. […] The stock solutions were prepared in dimethyl sulfoxide (DMSO, Sigma-Aldrich, St. Louis, MO, cat. D2650) at 400-fold the tested concentration and stored at -70 degrees C. Prior to their use, the stock solutions were diluted in fresh medium and the final DMSO concentration in the assay was 0.25% (v/v). All drugs and investigational agents were tested over a range starting from a high concentration at or near the clinical Cmax and decreasing in half-log increments. If the clinical Cmax for an agent had not been determined, the highest concentration tested was 10 microM.
Cell Lines. The patient-derived cancer cell (PDC) lines: 156681-154-R-J1-PDC, 283228-195-R-J1-PDC, 287954-098-R-J1-PDC, 292921-168-R-J2-PDC, 349418-098-R-PDC, 425362-245-T-J1-PDC, 556581-035-R-J1-PDC, and BL0293-F563-PDC were received from the NCI Patient-Derived Models Repository (PDMR, https://pdmr.cancer.gov). The established cell lines HS-SY-2 (RRID:CVCL_8719), MPNST, and SYO-1 (RRID:CVCL_7146) were obtained from the Sloan Kettering Institute. The alveolar soft parts sarcoma cell line ASPS-1 (RRID:CVCL_S738) was established at the NCI and grown from internal seed stocks. The following established cell lines were purchased from the American Type Culture Collection (ATCC, Manassas, VA): G-401 (ATCC, cat. CRL-1441, RRID:CVCL_0270), SW982 (ATCC, cat. HTB-93, RRID:CVCL_1734), VA-ES-BJ (ATCC, cat. CRL-2138, RRID:CVCL_1785), NCI-H719 (ATCC, cat. CRL-5837, RRID:CVCL_1582), NCI-H196 (ATCC, cat. CRL-5823, RRID:CVCL_1509), NCI-H841 (ATCC, cat. CRL-5845, RRID:CVCL_1595), NCI-H1618 (ATCC, cat. CRL-5879, RRID:CVCL_1480), NCI-H1876 (ATCC, cat. CRL-5902, RRID:CVCL_1503), DMS 114 (ATCC, cat. CRL-2066; RRID:CVCL_1174), NCI-H211 (ATCC, cat. CRL-5824; RRID:CVCL_1529), and SW 1271 (ATCC, cat. CRL-2177, RRID:CVCL_1716). The small cell lung cancer cell line COR-L88 was purchased from Sigma-Aldrich (cat. 92031917-1VL, RRID:CVCL_1141). The non-small cell lung cancer cell lines NCI-H226 (RRID:CVCL_1544) and NCI-H322M (RRID:CVCL_1557) were established at the NCI and grown from internal seed stocks. Pooled donor human umbilical vein endothelial cells (HUVEC, Lonza, cat. CC-2519) and human mesenchymal stem cells (hMSC, Lonza, cat. PT-2501) were purchased from Lonza (Walkersville, MD).
Cell Culture. All cells were maintained in an incubator at 37 degrees C and 5% CO2 with 95% humidity. […]

[1] = second compound 0.003 µM, first compound 0.00949 µM
[2] = second compound 0.003 µM, first compound 0.03 µM
[3] = second compound 0.003 µM, first compound 0.0949 µM
[4] = second compound 0.003 µM, first compound 0.3 µM
[5] = second compound 0.003 µM, first compound 0.949 µM
[6] = second compound 0.003 µM, first compound 3 µM
[7] = second compound 0.00949 µM, first compound 0.00949 µM
[8] = second compound 0.00949 µM, first compound 0.03 µM
[9] = second compound 0.00949 µM, first compound 0.0949 µM
[10] = second compound 0.00949 µM, first compound 0.3 µM
[11] = second compound 0.00949 µM, first compound 0.949 µM
[12] = second compound 0.00949 µM, first compound 3 µM
[13] = second compound 0.03 µM, first compound 0.00949 µM
[14] = second compound 0.03 µM, first compound 0.03 µM
[15] = second compound 0.03 µM, first compound 0.0949 µM
[16] = second compound 0.03 µM, first compound 0.3 µM
[17] = second compound 0.03 µM, first compound 0.949 µM
[18] = second compound 0.03 µM, first compound 3 µM
[19] = second compound 0.0949 µM, first compound 0.00949 µM
[20] = second compound 0.0949 µM, first compound 0.03 µM
[21] = second compound 0.0949 µM, first compound 0.0949 µM
[22] = second compound 0.0949 µM, first compound 0.3 µM
[23] = second compound 0.0949 µM, first compound 0.949 µM
[24] = second compound 0.0949 µM, first compound 3 µM
[25] = second compound 0.3 µM, first compound 0.00949 µM
[26] = second compound 0.3 µM, first compound 0.03 µM
[27] = second compound 0.3 µM, first compound 0.0949 µM
[28] = second compound 0.3 µM, first compound 0.3 µM
[29] = second compound 0.3 µM, first compound 0.949 µM
[30] = second compound 0.3 µM, first compound 3 µM
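Also: spheroids exposed to agents for 7 days.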
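For viability, T/C in this document: 100% = DMSO vehicle control viability.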

Row | Compound | IC50 (second compound 0.003 µM) [µM] | IC50 (second compound 0.00949 µM) [µM] | IC50 (second compound 0.03 µM) [µM] | IC50 (second compound 0.0949 µM) [µM] | IC50 (second compound 0.3 µM) [µM] | viability, T/C [3] [%] | viability, T/C [4] [%] | viability, T/C [5] [%] | viability, T/C [6] [%] | viability, T/C [9] [%] | viability, T/C [10] [%] | viability, T/C [11] [%] | viability, T/C [12] [%] | viability, T/C [15] [%] | viability, T/C [16] [%] | viability, T/C [17] [%] | viability, T/C [18] [%] | viability, T/C [21] [%] | viability, T/C [22] [%] | viability, T/C [23] [%] | further results
1 | CNCc1ccc(-c2cc(-c3nc(-c4ccc(S(=O)(=O)C(C)C)cc4)cnc3N)on2)cc1 + CC[C@@]1(O)C(=O)OCc2c1cc1n(c2=O)Cc2cc3c(CN(C)C)c(O)ccc3nc2-1 | 0.055 | 0.0475 | < 0.00949 | < 0.00949 | < 0.00949 | 32.7 | 5.49 | 2.14 | 0.22 | 17.6 | 4.43 | 2.33 | 0.18 | 10.4 | 2.7 | 1.35 | 0.15 | 2.64 | 2.59 | 1.05 | viability, T/C [1]: 75.8%; viability, T/C [2]: 69.4%; viability, T/C [7]: 70%; viability, T/C [8]: 73%; viability, T/C [13]: 33.9%; viability, T/C [14]: 17.8%; viability, T/C [19]: 4.36%; viability, T/C [20]: 4.83%; viability, T/C [24]: 0.21%; viability, T/C [25]: 1.97%; viability, T/C [26]: 1.87%; viability, T/C [27]: 1.95%; viability, T/C [28]: 1.64%; viability, T/C [29]: 1.08%; viability, T/C [30]: 0.28%
2 | Cn1ncnc1[C@H]1c2n[nH]c(=O)c3cc(F)cc(c23)N[C@@H]1c1ccc(F)cc1 + CC[C@@]1(O)C(=O)OCc2c1cc1n(c2=O)Cc2cc3c(CN(C)C)c(O)ccc3nc2-1 | < 0.00949 | < 0.00949 | < 0.00949 | < 0.00949 | < 0.00949 | 17.6 | 11.1 | 5.98 | 2.38 | 9.54 | 9.4 | 6.02 | 3.27 | 7.89 | 6.48 | 3.96 | 2.32 | 3.86 | 3.16 | 2.57 | viability, T/C [1]: 47.8%; viability, T/C [2]: 30.3%; viability, T/C [7]: 28.2%; viability, T/C [8]: 13.9%; viability, T/C [13]: 8.39%; viability, T/C [14]: 8.16%; viability, T/C [19]: 4.28%; viability, T/C [20]: 3.95%; viability, T/C [24]: 1.79%; viability, T/C [25]: 2.13%; viability, T/C [26]: 1.9%; viability, T/C [27]: 1.79%; viability, T/C [28]: 1.71%; viability, T/C [29]: 1.43%; viability, T/C [30]: 1.33%
3 | O=C(c1cc(Cc2n[nH]c(=O)c3ccccc23)ccc1F)N1CCN(C(=O)C2CC2)CC1 + CC[C@@]1(O)C(=O)OCc2c1cc1n(c2=O)Cc2cc3c(CN(C)C)c(O)ccc3nc2-1 | 3.17 | 0.65 | < 0.0949 | < 0.0949 | < 0.0949 | 87 | 84.8 | 80.6 | 52.4 | 71.3 | 55 | 46.6 | 34.8 | 7.79 | 10.1 | 8.82 | 6.98 | 4.29 | 4.4 | 5.46 | viability, T/C (second compound 0.003 µM, first compound 9.49 µM): 7.82%; viability, T/C (second compound 0.003 µM, first compound 30 µM): 9.12%; viability, T/C (second compound 0.00949 µM, first compound 9.49 µM): 9.52%; viability, T/C (second compound 0.00949 µM, first compound 30 µM): 8.51%; viability, T/C (second compound 0.03 µM, first compound 9.49 µM): 6.48%; viability, T/C (second compound 0.03 µM, first compound 30 µM): 5.12%; viability, T/C [24]: 4.39%; viability, T/C (second compound 0.0949 µM, first compound 9.49 µM): 3.36%; viability, T/C (second compound 0.0949 µM, first compound 30 µM): 3.93%; viability, T/C [27]: 2.55%; viability, T/C [28]: 1.67%; viability, T/C [29]: 1.76%; viability, T/C [30]: 1.64%; viability, T/C (second compound 0.3 µM, first compound 9.49 µM): 1.57%; viability, T/C (second compound 0.3 µM, first compound 30 µM): 1.68%
